Reference: publication PMC4965013, “Open Source Drug Discovery with the Malaria Box Compound Collection for Neglected Diseases and Beyond” (PLoS Pathogens, 2016)
pEC50: −log10 of the molar value. In brackets after ≈: the same amount, converted by molar mass.

Legend:
[1] = target: Pf KRS Lysyl-tRNA Synthetase (Plasmodium falciparum, UniProt Q8IDJ8); experiment: PfKRS Kinase-Glo aminoacylation; details: control 1µM; compounds 10 µM
MAPK2 = tested on: MAPK2; design: method as in ref [25] (a number printed in a supplementary file, which may have a reference list of its own: not looked up in the article's list); details: control 100 µM; compounds 1 µM; ref [25]; cited from earlier work
Staphylococcus aureus = experiment: S. aureus agar spot / MIC Baker; details: read-out: Minimum Inhibitory Concentrations (MIC) S. aureus
[2] = tested on: Acinetobacter baumannii ATCC 19606; experiment: A. baumannii agar spot / MIC Baker; details: ATCC19606, read-out: Minimum Inhibitory Concentrations (MIC) A. baumanii
T. b. brucei Squib 427 = experiment: T. b. brucei growth Maes; type: cell-based, Trypanosoma brucei brucei; details: non-toxic, positive in all T. brucei screens
[3] = tested on: P. falciparum 3D7 trophozoites; experiment: Metabolomic fingerprint profiling LC-MS; type: cell-based, Plasmodium falciparum; design: UDP-D-glucose / ADP-D-glucose: unit not given here
P. falciparum = experiment: EC50 listed in S2 Table Metabolomics (used to set the concentration tested); type: cell-based; details: Plasmodium falciparum; EC50 used for Factor_XEC50 in metabolomics; read-out: EC50_nM
[4] = tested on: Naegleria fowleri trophozoites; experiment: Naegleria fowleri CellTiter-Glo; type: cell-based; details: Naegleria fowleri
Description: Columns CY-CZ: Kyle group (data presented first in this paper). Naegleria fowleri trophozoite growth inhibition. Methods: The CellTiter-Glo (CTG) 2.0 luminescent assay is a quantitative assay that assesses the presence of cellular ATP in lysed cells, displaying an output in Relative Light Units (RLU’s). This was previously standardised, for the growth and development of Naegleria fowleri trophozoites in-vitro to assess drug susceptibility on this parasite. […] These included two drug-like molecules MMV665807 (St. Jude’s Children’s Hospital) and MMV665979 (The Genomics Institute of the Novartis Research Foundation - GNF) and two Probe-like molecules, MMV006203 (GNF) & MMV006172 (GNF; GlaxoSmithKline - GSK). […] However, these Malaria Box compounds were all toxic to zebrafish and mammalian cells.

cruzain = cruzain (Trypanosoma cruzi, UniProt P25779); experiment: cruzain Z-FR-AMC cleavage; type: biochemical; details: 500 nM
Chain of cruzain (P25779 123-337): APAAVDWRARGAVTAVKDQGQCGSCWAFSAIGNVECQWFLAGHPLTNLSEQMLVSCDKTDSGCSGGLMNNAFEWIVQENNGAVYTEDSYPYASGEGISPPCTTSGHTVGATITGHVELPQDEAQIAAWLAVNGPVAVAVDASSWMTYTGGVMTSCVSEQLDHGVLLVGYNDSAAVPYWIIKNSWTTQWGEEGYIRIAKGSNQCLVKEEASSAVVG
Description: (§1) Cysteine Protease Inhibitors Cruzain and Rhodesain, Ferreira group (data presented first in this paper). Recombinant cruzain was gently provided by Allison Doak and Dr. Brian Shoichet (University of California, San Francisco), while rhodesain was kindly provided by Dr. Conor Caffrey (Center for Discovery and Innovation in Parasitic Diseases, Skaggs School of Pharmacy and Pharmaceutical Sciences, University of California San Diego). Cruzain and rhodesain activity were measured as previously described, (Ferreira et al., 2010) by monitoring the cleavage of the fluorogenic substrate Z-Phe-Argaminomethylcoumarin (Z-FR-AMC) in a Synergy 2 (Biotek), from the Center of Flow Cytometry and Fluorimetry at the Biochemistry and Immunology Department (Universidade Federal de Minas Gerais, UFMG). Formation of fluorescent 4-amino-7-metyhlcoumarin was measured employing 340 nm wavelength for excitation and 440 nm for emission. […] Initially compounds were pre-incubated with the enzyme for 10 minutes in 100 µL assay buffer, then 100 µL of 5 μM substrate solution was added and the reaction was immediately monitored. Assays were performed in duplicate, followed for 5 min and activity was calculated based on initial velocities. […] Reported values refer to average and standard errors calculated based on duplicates. […] Data was analyzed with Prism 5.0 (GraphPad). […]

rhodesain = rhodesain (Trypanosoma brucei rhodesiense, UniProt Q95PM0); experiment: rhodesain Z-FR-AMC cleavage; type: biochemical; details: 500 nM
Chain of rhodesain (Q95PM0 entry or part of it): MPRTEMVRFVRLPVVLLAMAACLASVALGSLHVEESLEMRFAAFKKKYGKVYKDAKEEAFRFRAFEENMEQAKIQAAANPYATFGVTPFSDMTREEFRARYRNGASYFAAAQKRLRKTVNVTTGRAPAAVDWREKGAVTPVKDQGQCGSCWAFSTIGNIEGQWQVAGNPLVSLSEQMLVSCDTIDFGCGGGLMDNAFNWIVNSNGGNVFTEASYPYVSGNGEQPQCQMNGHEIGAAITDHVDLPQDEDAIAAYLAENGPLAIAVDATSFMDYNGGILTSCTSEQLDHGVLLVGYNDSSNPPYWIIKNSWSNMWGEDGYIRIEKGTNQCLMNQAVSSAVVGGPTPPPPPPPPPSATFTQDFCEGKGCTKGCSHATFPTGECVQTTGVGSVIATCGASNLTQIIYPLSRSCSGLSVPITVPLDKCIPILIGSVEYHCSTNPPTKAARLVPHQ
Description: as §1

P. falciparum HB3 = experiment: Stage-specificity / mitochondrial integrity image assay Ayong; type: cell-based; details: 10µM
[5] = target: Pf ProRS Prolyl-tRNA synthetase (Plasmodium falciparum, UniProt Q8I5R7); experiment: PfProRS Kinase-Glo aminoacylation; details: control 1µM; compounds 10 µM
Chain of Pf ProRS Prolyl-tRNA synthetase (Q8I5R7 8-746): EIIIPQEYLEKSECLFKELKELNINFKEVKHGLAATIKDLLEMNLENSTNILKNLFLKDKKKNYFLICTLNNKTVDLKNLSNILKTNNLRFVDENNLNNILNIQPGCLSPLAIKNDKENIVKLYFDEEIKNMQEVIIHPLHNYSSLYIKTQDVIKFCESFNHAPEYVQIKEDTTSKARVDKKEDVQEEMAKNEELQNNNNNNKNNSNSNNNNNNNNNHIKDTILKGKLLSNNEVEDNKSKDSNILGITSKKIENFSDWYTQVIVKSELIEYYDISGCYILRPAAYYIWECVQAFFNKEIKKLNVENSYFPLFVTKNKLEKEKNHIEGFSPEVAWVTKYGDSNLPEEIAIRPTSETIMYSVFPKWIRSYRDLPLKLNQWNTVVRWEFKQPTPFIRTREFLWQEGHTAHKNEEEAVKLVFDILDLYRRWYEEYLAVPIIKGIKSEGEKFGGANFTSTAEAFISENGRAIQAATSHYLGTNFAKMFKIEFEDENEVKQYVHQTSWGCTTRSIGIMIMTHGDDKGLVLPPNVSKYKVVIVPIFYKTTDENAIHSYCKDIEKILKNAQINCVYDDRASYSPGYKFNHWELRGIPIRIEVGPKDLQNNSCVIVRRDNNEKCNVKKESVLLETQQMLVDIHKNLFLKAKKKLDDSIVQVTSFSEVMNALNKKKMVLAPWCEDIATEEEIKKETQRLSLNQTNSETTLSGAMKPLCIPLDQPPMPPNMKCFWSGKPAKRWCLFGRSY

A. ceylanicum L3 larvae = A. ceylanicum L3 larvae J. Keiser; type: cell-based, Ancylostoma ceylanicum; details: 200µM
T. muris L1 larvae = T. muris L1 larvae J. Keiser; type: cell-based, Trichuris muris; details: 100µM
PK7 = tested on: PK7; design: method as in ref [25] (a number printed in a supplementary file, which may have a reference list of its own: not looked up in the article's list); details: control 100 µM; compounds 1 µM; ref [25]; cited from earlier work
[6] = metabolite level change after treatment

Chain of Pf KRS Lysyl-tRNA Synthetase (Q8IDJ8 entry or part of it): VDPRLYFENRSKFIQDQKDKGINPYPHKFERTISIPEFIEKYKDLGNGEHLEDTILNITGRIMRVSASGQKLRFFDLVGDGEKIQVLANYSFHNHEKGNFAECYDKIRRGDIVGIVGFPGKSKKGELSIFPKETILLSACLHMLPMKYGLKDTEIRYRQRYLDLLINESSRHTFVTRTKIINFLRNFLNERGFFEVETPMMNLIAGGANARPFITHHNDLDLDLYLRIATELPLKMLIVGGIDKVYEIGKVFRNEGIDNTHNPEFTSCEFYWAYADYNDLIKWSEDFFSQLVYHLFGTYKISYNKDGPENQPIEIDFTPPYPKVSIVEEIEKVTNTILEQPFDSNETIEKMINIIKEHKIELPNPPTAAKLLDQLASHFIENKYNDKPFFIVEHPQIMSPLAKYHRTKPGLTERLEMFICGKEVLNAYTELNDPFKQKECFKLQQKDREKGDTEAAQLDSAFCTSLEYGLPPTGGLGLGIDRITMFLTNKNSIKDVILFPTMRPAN

C[C@H]1CCC[C@H](C[C@H]2Cc3cc(O)cc(O)c3C(=O)O2)O1 [Cladosporin]
PfKRS % inhibition [1]: 100%

Nc1ncnc2c1ncn2[C@@H]1O[C@H](COP(=O)(O)OP(=O)(O)NP(=O)(O)O)[C@@H](O)[C@H]1O [AMP-PNP]
MAPK2 % inhibition (MAPK2): > 80%

O=C(Nc1ccc(F)c(Cl)c1)Nc1ccc(Cl)c(Cl)c1 [MMV665953]
MIC (Staphylococcus aureus): 1.25 to 5 µM (≈ 0.417 to 1.67 µg/mL) | MIC [2]: 1.25 to 5 µM (≈ 0.417 to 1.67 µg/mL)

CCN1CCN(Cc2ccc(NC(=O)c3cc4ccc5cccnc5c4[nH]3)cc2)CC1 [MMV020548]
Selectivity Index T. brucei screens (T. b. brucei Squib 427): > 10 | Acetyllysine ([3]; S2 Table Metabolomics, metabolite Acetyllysine): -1.074 | N-acetyl-L-ornithine ([3]; S2 Table Metabolomics, metabolite N-acetyl-L-ornithine): -0.7002 | N-carbamoyl-L-aspartate ([3]; S2 Table Metabolomics, metabolite N-carbamoyl-L-aspartate): 0.01627 | NADPH ([3]; S2 Table Metabolomics, metabolite NADPH): -0.7588 | dAMP ([3]; S2 Table Metabolomics, metabolite dAMP): 0.7039 | dCMP ([3]; S2 Table Metabolomics, metabolite dCMP): 0.2246 | dTDP ([3]; S2 Table Metabolomics, metabolite dTDP): 0.1022 | dTMP ([3]; S2 Table Metabolomics, metabolite dTMP): 0.01221 | dTTP ([3]; S2 Table Metabolomics, metabolite dTTP): -0.4268 | dihydroorotate ([3]; S2 Table Metabolomics, metabolite dihydroorotate): 0.1148 | orotate ([3]; S2 Table Metabolomics, metabolite orotate): 0.2392 | DLH ([3]; S2 Table Metabolomics, peptide DLH): -1.531 | DLS/SDL/SID ([3]; S2 Table Metabolomics, peptide DLS/SDL/SID): -1.1 | PD ([3]; S2 Table Metabolomics, peptide PD): -1.147 | PEE ([3]; S2 Table Metabolomics, peptide PEE): -0.7652 | PVNF ([3]; S2 Table Metabolomics, peptide PVNF): -1.327 | 3-phosphoglycerate ([3]; metabolite 3-phosphoglycerate, S2 Table Metabolomics): -0.1406 | ADP-D-glucose ([3]; metabolite ADP-D-glucose, S2 Table Metabolomics): 0.03533 | ATP ([3]; metabolite ATP, S2 Table Metabolomics): -0.3247 | CDP ([3]; metabolite CDP, S2 Table Metabolomics, change in metabolite level after compound treatment): -0.06734 | D-sedoheptulose-1/7-phosphate ([3]; metabolite D-sedoheptulose-1/7-phosphate, S2 Table Metabolomics, change in metabolite level after compound treatment): -0.2201 | FAD ([3]; metabolite FAD, S2 Table Metabolomics): -0.1695 | GMP ([3]; metabolite GMP, S2 Table Metabolomics, change in metabolite level after compound treatment): 0.03987 | NAD+ ([3]; metabolite NAD+, S2 Table Metabolomics): -0.004207 | NADP+ ([3]; metabolite NADP+, S2 Table Metabolomics): -0.07599 | Octoluse Bisphosphate ([3]; metabolite Octoluse Bisphosphate, S2 Table Metabolomics, change in metabolite level after compound treatment): -0.5083 | Pyroglutamic acid ([3]; metabolite Pyroglutamic acid, S2 Table Metabolomics): 0.8773 | UDP-D-glucose ([3]; metabolite UDP-D-glucose, S2 Table Metabolomics): -0.04378 | UDP-D-glucuronate ([3]; metabolite UDP-D-glucuronate, S2 Table Metabolomics): -0.2395 | UDP-N-acetyl-glucosamine ([3]; metabolite UDP-N-acetyl-glucosamine, S2 Table Metabolomics): -0.0477 | UDP ([3]; metabolite UDP, S2 Table Metabolomics, change in metabolite level after compound treatment): -0.1277 | UMP ([3]; metabolite UMP, S2 Table Metabolomics, change in metabolite level after compound treatment): -0.04731 | UTP ([3]; metabolite UTP, S2 Table Metabolomics, change in metabolite level after compound treatment): -0.476 | a-ketoglutarate ([3]; metabolite a-ketoglutarate, S2 Table Metabolomics): 0.2925 | citrate/isocitrate ([3]; metabolite citrate/isocitrate, S2 Table Metabolomics, change in metabolite level after compound treatment): 0.7028 | cytidine ([3]; metabolite cytidine, S2 Table Metabolomics): 0.2393 | dATP ([3]; metabolite dATP, S2 Table Metabolomics): -0.2064 | dGMP/AMP ([3]; metabolite dGMP/AMP, S2 Table Metabolomics, change in metabolite level after compound treatment): 0.2962 | fumarate ([3]; metabolite fumarate, S2 Table Metabolomics, change in metabolite level after compound treatment): -0.1605 | glucose-1/6-phosphate ([3]; metabolite glucose-1/6-phosphate, S2 Table Metabolomics, change in metabolite level after compound treatment): -0.1021 | glycerate ([3]; metabolite glycerate, S2 Table Metabolomics, change in metabolite level after compound treatment): 0.2926 | guanine ([3]; metabolite guanine, S2 Table Metabolomics, change in metabolite level after compound treatment): 0.4901 | guanosine ([3]; metabolite guanosine, S2 Table Metabolomics, change in metabolite level after compound treatment): 0.1417 | hypoxanthine ([3]; metabolite hypoxanthine, S2 Table Metabolomics): 0.9061 | indole ([3]; metabolite indole, S2 Table Metabolomics): 0.3876 | inosine ([3]; metabolite inosine, S2 Table Metabolomics, change in metabolite level after compound treatment): 0.524 | 2_3-Diphosphoglyceric acid [3, 6]: -0.4996 | 4-phosphopantothenate [3, 6]: 0.07924 | 6-phospho-D-gluconate [3, 6]: -0.3745 | FMN [3, 6]: -0.06134 | IMP [3, 6]: 0.03526 | Pyrophosphate [3, 6]: -0.5624 | Sedoheptoluse bisphosphate [3, 6]: -0.2788 | cyclic-AMP [3, 6]: -0.1988 | glutathione disulfide [3, 6]: -0.4809 | lactate [3, 6]: 0.3196 | myo-inositol [3, 6]: -0.02428 | nicotinate ([3]; metabolite nicotinate, S2 Table Metabolomics): 0.6741 | ornithine ([3]; metabolite ornithine, S2 Table Metabolomics): -0.3153 | phosphoenolpyruvate ([3]; metabolite phosphoenolpyruvate, S2 Table Metabolomics): 0.09829 | pyruvate ([3]; metabolite pyruvate, S2 Table Metabolomics, change in metabolite level after compound treatment): 0.858 | ribose-phosphate ([3]; metabolite ribose-phosphate, S2 Table Metabolomics): -0.1246 | sarcosine/alanine ([3]; metabolite sarcosine/alanine, S2 Table Metabolomics, change in metabolite level after compound treatment): 0.05828 | sn-glycerol-3-phosphate ([3]; metabolite sn-glycerol-3-phosphate, S2 Table Metabolomics): -0.07501 | succinate/methylmalonic acid ([3]; metabolite succinate/methylmalonic acid, S2 Table Metabolomics, change in metabolite level after compound treatment): -0.07231 | uridine ([3]; metabolite uridine, S2 Table Metabolomics, change in metabolite level after compound treatment): 0.7812 | xanthosine ([3]; metabolite xanthosine, S2 Table Metabolomics, change in metabolite level after compound treatment): 0.03293 | pEC50 (P. falciparum): 6.44

O=C(Nc1cccc(C(F)(F)F)c1)c1cc(Cl)ccc1O [MMV665807]
pEC50 [4]: 5.96 | MIC (Staphylococcus aureus): 1.25 to 5 µM (≈ 0.395 to 1.58 µg/mL) | MIC [2]: 1.25 to 5 µM (≈ 0.395 to 1.58 µg/mL)

CC(C)C[C@H](NC(=O)[C@H]1O[C@@H]1C(=O)O)C(=O)NCCCCN=C(N)N (relative stereo) [E-64, trans-Epoxysuccinyl-L-leucylamido-(4-guanidino) butane]
cruzain % inhibition (cruzain): approximately 100% | rhodesain % inhibition (rhodesain): approximately 100% | Effects on asexual life cycle progression (treatment at ER, LR, T, S; merozoites; mitochondrial integrity) (P. falciparum HB3): X-S-S-X-o-o

O=C(CC1NCCCC1O)Cn1cnc2cc(Br)c(Cl)cc2c1=O (stereo not shown) [halofuginone]
PfProRS % inhibition [5]: 100%

c1ccc([C@H]2CN3CCSC3=N2)cc1 [Levamisole, reference compound]
A. ceylanicum positive control effect (A. ceylanicum L3 larvae): caused death of all worms | T. muris positive control effect (T. muris L1 larvae): caused death of all worms

ivermectin [reference compound]
A. ceylanicum positive control effect (A. ceylanicum L3 larvae): caused death of all worms | T. muris positive control effect (T. muris L1 larvae): caused death of all worms

CC(C)(C)n1nc(-c2cccc3ccccc23)c2c(N)ncnc21 [1NA-PP1]
PK7 % inhibition (PK7): > 80%
